Compound: C1=CC2=C(C=C(C(=C2N=C1)O)N=NC3=CC4=C(C=C3)C=C(C=C4)S(=O)(=O)O)S(=O)(=O)O + CS(=O)(=O)N1CCN(Cc2cc3nc(-c4cccc5[nH]ncc45)nc(N4CCOCC4)c3s2)CC1 [Pictilisib] (partner 1 µM)
Experiment: relative viability (nuclei count vs DMSO), 5 days (fraction); higher = more cells survive
Conditions: first compound 0.08 µM
Method in brief: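 Five library-drug doses in √10 steps were combined with a fixed anchor-drug dose, or a single drug was given alone, by pin tool to lung cancer cell lines in 1536-well plates the day after seeding. Nuclei were stained and counted after 5 days. Relative viability is the nuclei count in treated wells over that in vehicle wells, taken as the median of duplicate plates.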

**Q.** Which relative viability does the source give for NCI-H1755 here?
**A.** 0.407

**Q.** Which relative viability does the source give for NCI-H2023 here?
**A.** 0.218

**Q.** Which relative viability does the source give for HCC-15 here?
**A.** 0.839

**Q.** How did the relative viability turn out when NCI-H1793 was run?
**A.** 0.313

**Q.** How did the relative viability turn out when PC-14 was run?
**A.** 0.845

**Q.** Which relative viability does the source give for EKVX here?
**A.** 0.419

**Q.** With LC-2-ad as the cell line, how does the relative viability read?
**A.** 0.429

**Q.** With NCI-H1563 as the cell line, how does the relative viability read?
**A.** 0.623

**Q.** With NCI-H1944 as the cell line, how does the relative viability read?
**A.** 0.333

**Q.** NCI-H1975 was tested. Which relative viability did it give?
**A.** 0.327

**Q.** How did the relative viability turn out when RERF-LC-KJ was run?
**A.** 0.623

**Q.** Which relative viability does the source give for ABC-1 here?
**A.** 0.629

**Q.** With NCI-H358 as the cell line, how does the relative viability read?
**A.** 0.37

**Q.** Which relative viability does the source give for NCI-H650 here?
**A.** 0.907

**Q.** For PC-3 [JPC-3], which relative viability is on record?
**A.** 0.79

Same assay, conditions: first compound 0.253 µM

**Q.** NCI-H23 was tested. Which relative viability did it give?
**A.** 0.514

**Q.** NCI-H1299 was tested. Which relative viability did it give?
**A.** 0.823

**Q.** How did the relative viability turn out when CAL-12T was run?
**A.** 0.409

**Q.** NCI-H1651 was tested. Which relative viability did it give?
**A.** 0.517

**Q.** Which relative viability does the source give for EPLC-272H here?
**A.** 0.321

**Q.** For NCI-H2228, which relative viability is on record?
**A.** 0.427

**Q.** Which relative viability does the source give for NCI-H1792 here?
**A.** 0.26

**Q.** Which relative viability does the source give for NCI-H1355 here?
**A.** 0.433

**Q.** For NCI-H3122, which relative viability is on record?
**A.** 0.552

**Q.** NCI-H1437 was tested. Which relative viability did it give?
**A.** 0.419

**Q.** How did the relative viability turn out when NCI-H1755 was run?
**A.** 0.44

**Q.** How did the relative viability turn out when NCI-H2023 was run?
**A.** 0.261

**Q.** With HCC-15 as the cell line, how does the relative viability read?
**A.** 0.766

**Q.** How did the relative viability turn out when NCI-H1793 was run?
**A.** 0.323

**Q.** PC-14 was tested. Which relative viability did it give?
**A.** 0.682

**Q.** Which relative viability does the source give for EKVX here?
**A.** 0.45

**Q.** For LC-2-ad, which relative viability is on record?
**A.** 0.476

**Q.** NCI-H1563 was tested. Which relative viability did it give?
**A.** 0.638

**Q.** NCI-H1944 was tested. Which relative viability did it give?
**A.** 0.348

**Q.** How did the relative viability turn out when NCI-H1975 was run?
**A.** 0.299

**Q.** How did the relative viability turn out when RERF-LC-KJ was run?
**A.** 0.648

**Q.** With ABC-1 as the cell line, how does the relative viability read?
**A.** 0.63

**Q.** Which relative viability does the source give for NCI-H358 here?
**A.** 0.35

**Q.** With NCI-H650 as the cell line, how does the relative viability read?
**A.** 0.859

**Q.** How did the relative viability turn out when PC-3 [JPC-3] was run?
**A.** 0.771

Same assay, conditions: first compound 0.8 µM

**Q.** How did the relative viability turn out when NCI-H23 was run?
**A.** 0.365

**Q.** How did the relative viability turn out when NCI-H1299 was run?
**A.** 0.821

**Q.** Which relative viability does the source give for NCI-H647 here?
**A.** 0.436

**Q.** CAL-12T was tested. Which relative viability did it give?
**A.** 0.366

**Q.** How did the relative viability turn out when NCI-H1651 was run?
**A.** 0.489

**Q.** EPLC-272H was tested. Which relative viability did it give?
**A.** 0.291

**Q.** For NCI-H2228, which relative viability is on record?
**A.** 0.289

**Q.** Which relative viability does the source give for NCI-H1792 here?
**A.** 0.295

**Q.** How did the relative viability turn out when NCI-H1355 was run?
**A.** 0.401

**Q.** NCI-H3122 was tested. Which relative viability did it give?
**A.** 0.555

**Q.** Which relative viability does the source give for NCI-H1437 here?
**A.** 0.47

**Q.** NCI-H1755 was tested. Which relative viability did it give?
**A.** 0.446

**Q.** Which relative viability does the source give for NCI-H2023 here?
**A.** 0.257

**Q.** HCC-15 was tested. Which relative viability did it give?
**A.** 0.635

**Q.** For PC-14, which relative viability is on record?
**A.** 0.621

**Q.** With EKVX as the cell line, how does the relative viability read?
**A.** 0.438

**Q.** LC-2-ad was tested. Which relative viability did it give?
**A.** 0.532

**Q.** Which relative viability does the source give for NCI-H1563 here?
**A.** 0.653

**Q.** How did the relative viability turn out when NCI-H1944 was run?
**A.** 0.327

**Q.** With NCI-H1975 as the cell line, how does the relative viability read?
**A.** 0.268

**Q.** How did the relative viability turn out when RERF-LC-KJ was run?
**A.** 0.588

**Q.** Which relative viability does the source give for ABC-1 here?
**A.** 0.579

**Q.** Which relative viability does the source give for NCI-H358 here?
**A.** 0.323

**Q.** NCI-H650 was tested. Which relative viability did it give?
**A.** 0.909

**Q.** With PC-3 [JPC-3] as the cell line, how does the relative viability read?
**A.** 0.663

Same assay, conditions: first compound 2.53 µM

**Q.** Which relative viability does the source give for NCI-H23 here?
**A.** 0.45

**Q.** Which relative viability does the source give for NCI-H1299 here?
**A.** 0.87

**Q.** For NCI-H647, which relative viability is on record?
**A.** 0.505

**Q.** CAL-12T was tested. Which relative viability did it give?
**A.** 0.36

**Q.** With NCI-H1651 as the cell line, how does the relative viability read?
**A.** 0.593

**Q.** EPLC-272H was tested. Which relative viability did it give?
**A.** 0.312

**Q.** Which relative viability does the source give for NCI-H2228 here?
**A.** 0.567

**Q.** Which relative viability does the source give for NCI-H1792 here?
**A.** 0.286

**Q.** For NCI-H1355, which relative viability is on record?
**A.** 0.473

**Q.** For NCI-H3122, which relative viability is on record?
**A.** 0.616

**Q.** Which relative viability does the source give for NCI-H1437 here?
**A.** 0.507

**Q.** Which relative viability does the source give for NCI-H1755 here?
**A.** 0.47

**Q.** NCI-H2023 was tested. Which relative viability did it give?
**A.** 0.251

**Q.** With HCC-15 as the cell line, how does the relative viability read?
**A.** 0.804

**Q.** Which relative viability does the source give for NCI-H1793 here?
**A.** 0.291

**Q.** With PC-14 as the cell line, how does the relative viability read?
**A.** 0.585

**Q.** For EKVX, which relative viability is on record?
**A.** 0.413

**Q.** With LC-2-ad as the cell line, how does the relative viability read?
**A.** 0.405

**Q.** How did the relative viability turn out when NCI-H1563 was run?
**A.** 0.626

**Q.** Which relative viability does the source give for NCI-H1944 here?
**A.** 0.345

**Q.** Which relative viability does the source give for NCI-H1975 here?
**A.** 0.305

**Q.** With RERF-LC-KJ as the cell line, how does the relative viability read?
**A.** 0.56

**Q.** Which relative viability does the source give for ABC-1 here?
**A.** 0.67

**Q.** Which relative viability does the source give for NCI-H358 here?
**A.** 0.356

**Q.** For NCI-H650, which relative viability is on record?
**A.** 0.92

**Q.** For PC-3 [JPC-3], which relative viability is on record?
**A.** 0.713

Same assay, conditions: first compound 8 µM

**Q.** Which relative viability does the source give for NCI-H23 here?
**A.** 0.585

**Q.** Which relative viability does the source give for NCI-H1299 here?
**A.** 0.623

**Q.** For NCI-H647, which relative viability is on record?
**A.** 0.394

**Q.** CAL-12T was tested. Which relative viability did it give?
**A.** 0.323

**Q.** Which relative viability does the source give for NCI-H1651 here?
**A.** 0.563

**Q.** How did the relative viability turn out when EPLC-272H was run?
**A.** 0.104

**Q.** Which relative viability does the source give for NCI-H2228 here?
**A.** 0.291

**Q.** How did the relative viability turn out when NCI-H1792 was run?
**A.** 0.302

**Q.** For NCI-H1355, which relative viability is on record?
**A.** 0.441

**Q.** NCI-H3122 was tested. Which relative viability did it give?
**A.** 0.638

**Q.** How did the relative viability turn out when NCI-H1437 was run?
**A.** 0.56

**Q.** With NCI-H1755 as the cell line, how does the relative viability read?
**A.** 0.246

**Q.** Which relative viability does the source give for NCI-H2023 here?
**A.** 0.298

**Q.** For HCC-15, which relative viability is on record?
**A.** 0.636

**Q.** How did the relative viability turn out when NCI-H1793 was run?
**A.** 0.369

**Q.** For PC-14, which relative viability is on record?
**A.** 0.673

**Q.** How did the relative viability turn out when EKVX was run?
**A.** 0.399

**Q.** How did the relative viability turn out when LC-2-ad was run?
**A.** 0.423

**Q.** NCI-H1563 was tested. Which relative viability did it give?
**A.** 0.701

**Q.** For NCI-H1944, which relative viability is on record?
**A.** 0.332

**Q.** With NCI-H1975 as the cell line, how does the relative viability read?
**A.** 0.286

**Q.** With RERF-LC-KJ as the cell line, how does the relative viability read?
**A.** 0.543

**Q.** ABC-1 was tested. Which relative viability did it give?
**A.** 0.643

**Q.** For NCI-H358, which relative viability is on record?
**A.** 0.363

**Q.** With NCI-H650 as the cell line, how does the relative viability read?
**A.** 0.833

**Q.** For PC-3 [JPC-3], which relative viability is on record?
**A.** 0.694

Reference: the supplement of paper PMC10307832
